These results are taken from US20250197343A1, “CATIONIC LIPID” (TAKEDA PHARMACEUTICAL COMPANY LIMITED, priority 2021, published 2025).

A short description of data set [1]: Particle size of Luc DNA-encapsulated lipid nanoparticles. In kind it is physicochemical. To be noted: cationic lipid:DPPC:cholesterol:GM-020=60:10.6:28:1.4 molar ratio. The source says:
The particle size of the lipid particle (in the composition) can be measured by a known approach. For example, the particle size can be calculated as a Z-average particle size by the cumulant analysis of an autocorrelation function using a particle size measurement apparatus Zetasizer Nano ZS (Malvern Instruments) based on a dynamic light scattering measurement technique. The particle size (average particle size) of the lipid particle (in the composition) is, for example, 10 to 200 nm, preferably 60 to 170 nm.
(§1) A lipid mixture containing a cationic lipid of the Examples shown in Table 2 (cationic lipid:DPPC:cholesterol:GM-020=60:10.6:28:1.4, molar ratio) was dissolved in 90% of EtOH and 10% of water to obtain a 15.0 mg/ml lipid solution. Luciferase (luc) DNA (manufactured by Nature Technology Corp.) was dissolved in a 10 mM MES buffer solution (pH 5.5) to obtain a 0.3 mg/ml nucleic acid solution. The obtained lipid solution and nucleic acid solution were mixed at a flow rate ratio of 3 ml/min:6 ml/min at room temperature using NanoAssemblr (manufactured by Precision NanoSystems Inc.) to obtain a dispersion containing Luc DNA-encapsulated lipid nanoparticles. The obtained dispersion was dialyzed against water at room temperature for 1 hour and against PBS at 4° C. for 23 hours using Slyde-A-Lyzer (molecular weight cutoff: 20 K, Thermo Fischer Scientific Inc.). Subsequently, the dialysate was filtered through a 0.2 µm syringe filter (Iwaki). A 60% solution of sucrose in PBS was added thereto, and the mixture was preserved as a 20% solution of sucrose in PBS at −80° C. Analysis results of particle size and rate of encapsulation of the Luc DNA-encapsulated lipid nanoparticles are also shown in Table 2.

Data set [2] can be described thus: Rate of encapsulation of Luc DNA in lipid nanoparticles. The class given is physicochemical. More on the design: unit: %. To be noted: Luc DNA-encapsulated lipid nanoparticles; cationic lipid:DPPC:cholesterol:GM-020=60:10.6:28:1.4 molar ratio.
Excerpt: The concentration and rate of encapsulation of the nucleic acid (e.g., siRNA or mRNA) in the composition of the present invention can be measured by a known approach. For example, the nucleic acid is fluorescently labeled using Quant-iT™ RiboGreen® (Invitrogen Corp.), and the fluorescence intensity can be measured to determine the concentration and the rate of encapsulation. The concentration of the nucleic acid in the composition can be calculated using a calibration curve prepared from aqueous nucleic acid solutions having known concentrations. The rate of encapsulation can be calculated on the basis of the difference in fluorescence intensity between the presence and absence of addition of Triton-X 100 (surfactant for disrupting the lipid particle). The concentration of the nucleic acid in the composition refers to the total concentration of a nucleic acid encapsulated in the lipid particle and an unencapsulated nucleic acid. The rate of encapsulation refers to the ratio of the nucleic acid encapsulated in the lipid particle to all nucleic acids in the composition.
as §1

Another data set has as its system ICrl:CD1 (ICR) mice. The data set is described as follows: Mouse bioluminescence imaging evaluation (Test Example 1). In kind it is in vivo. The conditions noted are these: Luc DNA-encapsulated lipid nanoparticles 10 mL/kg i.v. to ICR mice; IVIS total flux 15 minutes after luciferin i.p. On the procedure:
The Luc DNA-encapsulated lipid nanopatricles obtained in the aforesaid Production Example were intravenously administered to the tails of ICrl:CD1 (ICR) mice (10 mL/kg i.v.). After administration of the lipid particles, luciferin (15 mg/mL) was administered to the mice (10 mL/kg i.p.), which were loaded in an IVIS (in vivo imaging system) apparatus (manufactured by PerkinElmer, Inc.) under isoflurane inhalation anesthesia. Luminescence images of the mice were taken ventrally (in a supine position) 15 minutes after luciferin administration. The luminescence was digitized with the software of IVIS, followed by evaluation using the value of total flux. Higher luminescence means strong expression of the protein encoded by the DNA encapsulate in the lipid particle. In Table 2, higher luminescence is indicated on a scale of A, B and C in order. A represents luminescence of 3.0E+07 or more, B represents luminescence of 1.0E+0.7 or more and less than 3.0E+07, and C represents luminescence of less than 1.0E+07.

As to `CCCCCC(CCCCC)COC(=O)CCC(=O)OCC(COC(=O)CCCCN(C)C)(COC(=O)CCC(=O)OCC(CCCCC)CCCCC)COC(=O)CCC(=O)OCC(CCCCC)CCCCC` [Example 38, 1,1′ {2-({[5-(Dimethylamino)pentanoyl]oxy}methyl)-2-[({4-oxo-4-[(2-pentylheptyl)oxy]butanoyl}oxy)methyl]propane-1,3-diyl} 4,4′-bis(2-pentylheptyl) dibutanedioate], the “Particle size (nm)” value in data set [1] was 131.3 nm. Also, the Rate of encapsulation in data set [2] was found to be 95.2. Also, the Luminescence entry in the data set with ICrl:CD1 (ICR) mice is listed as “A (A represents luminescence of 3.0E+07 or more)”.
The like results for `CCCCCCCCC(C(=O)OC)C(=O)OCC(COC(=O)CCCN(CC)C(C)C)(COC(=O)CC(CCCCC)CCCCC)COC(=O)C(CCCCCCCC)C(=O)OC` (stereo not drawn) [Example 133, 1,1′-(2-[({4-[Ethyl(propan-2-yl)amino]butanoyl}oxy)methyl]-2-{[(3-pentyloctanoyl)oxy]methyl}propane-1,3-diyl) 3,3′-dimethyl bis(octylpropanedioate)] were, in that order, 133.4 nm, 95.3 and “C (C represents luminescence of less than 1.0E+07)”.
As for `CCCCCCCCCOC(=O)CCC(=O)OCC(COC(=O)CCCN(CC)C(C)C)(COC(=O)CCC(=O)OCCCCCCCCC)COC(=O)CC(CCCCC)CCCCC` [Example 100], the “Particle size (nm)” value in data set [1] is 141.8 nm. The Rate of encapsulation in data set [2] was 94.9. For the same compound, the Luminescence entry in the data set with ICrl:CD1 (ICR) mice was “B (B represents luminescence of 1.0E+0.7 or more and less than 3.0E+07)”.
For `CCCCCCCOC(=O)CCCCC(=O)OCC(COC(=O)CCCCC(=O)OCCCCCCC)(COC(=O)CCCN(CC)C(C)C)COC(=O)CC(CCCCC)CCCCC` [Example 91, 1,1′-(2-[({4-[Ethyl(propan-2-yl)amino]butanoyl}oxy)methyl]-2-{[(3-pentyloctanoyl)oxy]methyl}propane-1,3-diyl] 6,6′-diheptyl dihexanedioate], the “Particle size (nm)” value in data set [1] was found to be 111.9 nm. The Rate of encapsulation in data set [2] is 96.5. Besides, in the data set on ICrl:CD1 (ICR) mice, the Luminescence result was “B (B represents luminescence of 1.0E+0.7 or more and less than 3.0E+07)”.
With `CCCCCCCCOC(=O)CCCC(=O)OCC(COC(=O)CCCC(=O)OCCCCCCCC)(COC(=O)CCCN(C)C)COC(=O)CC(CCCCC)CCCCC` [Example 98, 1,1′-[2-({[4-(Dimethylamino)butanoyl]oxy}methyl)-2-{[(3-pentyloctanoyl)oxy]methyl}propane-1,3-diyl] 5,5′-dioctyl dipentanedioate], in data set [1], the “Particle size (nm)” value is reported as 140.5 nm. Besides, the Rate of encapsulation in data set [2] was 96.3. Further, in the data set with ICrl:CD1 (ICR) mice, the Luminescence result is reported as “A (A represents luminescence of 3.0E+07 or more)”.
Consider `CCCCCC(CCCCC)CC(=O)OCC(COC(=O)CCCCC(=O)OCCCC)(COC(=O)CCN(C)C)COC(=O)CC(CCCCC)CCCCC` [Example 19, Butyl 2-{[(N,N-dimethyl-beta-alanyl)oxy]methyl}-3-[(3-pentyloctanoyl)oxy]-2-{[(3-pentyloctanoyl)oxy]methyl}propyl hexanedioate], for which, in data set [1], the “Particle size (nm)” value turned out to be 89.8 nm. Moreover, the Rate of encapsulation in data set [2] was 95.4. Besides, in the data set on ICrl:CD1 (ICR) mice, the Luminescence result was “B (B represents luminescence of 1.0E+0.7 or more and less than 3.0E+07)”.
`CCCCCCCCCCOC(=O)CC(=O)OCC(COC(=O)CCCN(C)C)(COC(=O)CC(=O)OCCCCCCCCCC)COC(=O)CC(CCCCC)CCCCC` [Example 71, 1,1′-Didecyl 3,3′-[2-({[4-(dimethylamino)butanoyl]oxy}methyl)-2-{[(3-pentyloctanoyl)oxy]methyl}propane-1,3-diyl] dipropanedioate]: the “Particle size (nm)” value in data set [1] stood at 97.2 nm. The Rate of encapsulation in data set [2] amounted to 92.6. In addition, the Luminescence entry in the data set with ICrl:CD1 (ICR) mice was “A (A represents luminescence of 3.0E+07 or more)”.
In the case of `CCCCCC(CCCCC)CC(=O)OCC(COC(=O)CCCCCCCC(=O)OCCCC)(COC(=O)CCCN(C)C)COC(=O)CC(CCCCC)CCCCC` [Example 34, Butyl 2-({[4-(dimethylamino)butanoyl]oxy}methyl)-3-[(3-pentyloctanoyl)oxy]-2-{[(3-pentyloctanoyl)oxy]methyl}propyl nonanedioate], the “Particle size (nm)” value in data set [1] came to 184.3 nm. Moreover, in data set [2], the Rate of encapsulation was 52.7. Also, the Luminescence entry in the data set with ICrl:CD1 (ICR) mice is reported as “C (C represents luminescence of less than 1.0E+07)”.
As for `CCCCCC(CCCCC)CC(=O)OCC(COC(=O)CCCCCCCC(=O)OCCCC)(COC(=O)CCCCCCCC(=O)OCCCC)COC(=O)CCCN(C)C` [Example 33, 1,1′-Dibutyl 9,9′-[2-({[4-(dimethylamino)butanoyl]oxy}methyl)-2-{[(3-pentyloctanoyl)oxy]methyl}propane-1,3-diyl] dinonanedioate], in data set [1], the “Particle size (nm)” value is 145.7 nm. The Rate of encapsulation in data set [2] amounted to 89.9. Besides, the Luminescence entry in the data set on ICrl:CD1 (ICR) mice was “B (B represents luminescence of 1.0E+0.7 or more and less than 3.0E+07)”.
As for `CCCCCCCCCCC(C(=O)OC)C(=O)OCC(COC(=O)CCCN(CC)C(C)C)(COC(=O)CC(CCCCC)CCCCC)COC(=O)C(CCCCCCCCCC)C(=O)OC` (stereo not drawn) [Example 135, 1,1′-(2-[({4-[Ethyl(propan-2-yl)amino]butanoyl}oxy)methyl]-2-{[(3-pentyloctanoyl)oxy]methyl}propane-1,3-diyl) 3,3′-dimethyl bis(decylpropanedioate)], the “Particle size (nm)” value in data set [1] is on record as 80.1 nm. The Rate of encapsulation in data set [2] was determined as 97.1. Also, the Luminescence result in the data set with ICrl:CD1 (ICR) mice is “A (A represents luminescence of 3.0E+07 or more)”.
Consider `CCCCCCCCCCC(C(=O)OC)C(=O)OCC(COC(=O)CCCN(C)C)(COC(=O)CC(CCCCC)CCCCC)COC(=O)C(CCCCCCCCCC)C(=O)OC` (stereo not drawn) [Example 134, 1,1′-[2-({[4-(Dimethylamino)butanoyl]oxy}methyl)-2-{[(3-pentyloctanoyl)oxy]methyl}propane-1,3-diyl] 3,3′-dimethyl bis(decylpropanedioate)], for which the “Particle size (nm)” value in data set [1] was found to be 103.0 nm. The Rate of encapsulation in data set [2] came to 94.5. The Luminescence entry with ICrl:CD1 (ICR) mice is “A (A represents luminescence of 3.0E+07 or more)”.
Consider `CCCCCC(CCCCC)COC(=O)CCC(=O)OCC(COC(=O)CCCN(C)C)(COC(=O)CCC(=O)OCC(CCCCC)CCCCC)COC(=O)CC(CCCCC)CCCCC` [Example 95, 1,1′-[2-({[4-(Dimethylamino)butanoyl]oxy}methyl)-2-{[(3-pentyloctanoyl)oxy]methyl}propane-1,3-diyl] 4,4′-bis(2-pentylheptyl) dibutanedioate], for which the “Particle size (nm)” value in data set [1] is listed as 82.6 nm. The Rate of encapsulation in data set [2] came out at 99.1. Further, in the data set on ICrl:CD1 (ICR) mice, the Luminescence result is “B (B represents luminescence of 1.0E+0.7 or more and less than 3.0E+07)”.
Consider `CCCCCCCCOC(=O)CCCC(=O)OCC(COC(=O)CCCC(=O)OCCCCCCCC)(COC(=O)CCCN(CC)C(C)C)COC(=O)CC(CCCCC)CCCCC` [Example 101, 1,1′-(2-[({4-[Ethyl(propan-2-yl)amino]butanoyl}oxy)methyl]-2-{[(3-pentyloctanoyl)oxy]methyl}propane-1,3-diyl) 5,5′-dioctyl dipentanedioate], for which, in data set [1], the “Particle size (nm)” value is given as 137.2 nm. Besides, the Rate of encapsulation in data set [2] was found to be 93.2. Moreover, the Luminescence entry in the data set with ICrl:CD1 (ICR) mice was “A (A represents luminescence of 3.0E+07 or more)”.
